According to US20240425710A1, “PEPTIDE-BASED BIOINK COMPOSITIONS” (Ramot at Tel-Aviv University Ltd., priority 2022, published 2024):
The star is where a group is joined. Fmoc = O=C(OCC1c2ccccc2-c2ccccc21)*

What was measured:
Format in all cases: physicochemical
[1] = Hydrogel formation, inverted tubes after overnight gelation; details: single peptide, 5 g·L−1 in water from DMSO stock
Procedure: Preparation of hydrogels: Stock solutions of each of Fmoc-FF, PepA and PepB were prepared by dissolving the respective peptides in dimethyl sulfoxide (DMSO) at a concentration of 100 gram/liter (g·L^−1). The hydrogels were prepared by diluting the stock solution in double distilled water to a final concentration of 5 grams/Liter (5 g·L^−1), to thereby obtain a hydrogel formulation. The mixture was vortexed for 2 seconds and then incubated at room temperature until gelation occurred, thereby providing a hydrogel bioink composition.
Hydrogels made of a single peptide and hybrid hydrogels made of two peptides were prepared using the solvent switch method by dissolving the monomers in DMSO and then diluting the stock solutions into water to a final concentration of 5 g-L.

[2] = Time sweep rheology of peptide hydrogels and hybrid hydrogels; details: 5 Hz; for G′/G″ / G′ (storage modulus) / G″ (loss modulus): hydrogels 5 g·L−1, time sweep 0.5% strain; for G′ (storage modulus): after 4 hours of gelation; for G′ (storage modulus) / G″ (loss modulus): room temperature
Procedure: Rheological measurements: Rheological analysis was performed using an AR-G2 controlled rheometer (TA Instruments, New Castle, DA, USA). Oscillatory strain (0.01-100%) and frequency sweep (0.01-100 Hz) were conducted on 100 μL samples of pre gelated disks, 8 mm in diameter. The measurement was conducted with an 8 mm geometry (resulting in a gap size of 1 mm) at room temperature, in order to define the viscoelastic region in which the oscillatory test was performed.
Time-sweep oscillatory analyses used a constant a frequency of 5 Hz and a strain of 0.5%. Freshly prepared samples (220 μL) were placed under a 20 mm parallel plate geometry (resulting in a gap of 0.6 mm) at room temperature to determine the G′ (storage modulus) and G″, (loss modulus) for each sample.
The in situ kinetics of the hydrogels formation and their mechanical properties were characterized by time sweep measurements over 4 hours at a fixed strain of 0.5% and frequency of 5 Hz, and the results are presented in FIGS. 3A-B.

[3] = TEM imaging of hydrogel fibrils; details: hydrogels 5 g·L−1
Procedure: Transmission electron microscopy (TEM): Samples (10 μl) were placed on copper grids (400 mesh) covered with a carbon-stabilized Formvar film (EMS, BNFFA1000-Cu). After 2 minutes, excess gel was removed, and the grids were negatively stained with 10 μl of UranylLess staining solution for 1 minute. Finally, excess fluid was removed, and the samples were viewed in a JEM 1400plus electron microscope operating at 80 kV.

[4] = Absorbance kinetics of the hydrogel formation (turbidity at 400 nm)
Procedure: Absorbance kinetics of the hydrogel formation: Samples of 100 μL of Fmoc-FF, PegA, PepB formulations and the co-assembled hydrogels (bioink compositions) were placed into a 96-well plate. Absorbance at 400 nm was measured every 30 seconds using a TECAN Infinite M2000PRO plate reader for a total of 4 hours.
To further evaluate the impact of co-assembly on gelation kinetics, the absorbance spectra of the hybrid hydrogels compared to the Fmoc-FF hydrogel at 400 nm was monitored over time and the results are presented in FIGS. 8A-B.

hydrogel formation [1]	G′/G″ [2]	G′ (storage modulus) [2] [Pa]	G″ (loss modulus) [2] [Pa]	fibril diameter [3] [nm]	time to form a clear hydrogel (absorbance drop) ([4]; absorbance at 400 nm monitored over time)	OD value reached ([4]; absorbance at 400 nm, minimum after clearing) [OD]	time to gelation / plateau of hydrogel formation ([2]; time sweep over 4 hours, 0.5% strain, 5 g·L−1) [min]	Substance
formed a weak hydrogel	3	157	42	9	–	–	–	Fmoc-Phe-Phe-EG2—COOH [PepA]
did not form a hydrogel at all	0	1	1	–	–	–	–	Fmoc-Phe-Phe-EG6-COOH [PepB]
rigid and stable	37	9552	251	16	within a few minutes	0.1	≤ 4	Fmoc-Phe-Phe-OH [Fmoc-FF, reference compound]
